Results: article PMC6316234, “Bromopyrrole Alkaloids from the Sponge Agelas kosrae” (Marine Drugs, 2018)
Where two headings read alike, the source gives them in different places.

Legend:
SNU638 = test: Anti-proliferative activity, SRB staining assay, SNU638; type: cell-based; settings: Homo sapiens, SNU-638, 72 h, read-out: IC50 Anti-Proliferation SNU 638
Method: (§1) Anti-proliferative activity was evaluated using SRB staining assay in various cancer cell lines (K562, A549, HCT116, MDA-MB-231, SNU638, SK-Hep-1). Cells were purchased from the American Type Culture Collection (ATCC, Rockville, MD, USA). They were cultured in media supplemented with 10% fetal bovine serum (FBS) and antibiotics–antimycotics (PSF; 100 units/mL penicillin G sodium, […], and 250 ng/mL amphotericin B). All cells were maintained at 37 °C under a humidified atmosphere containing 5% CO2. Briefly, cells were seeded in 96-well plates with various doses of compounds and incubated for 72 h. The cells were stained as previously described. First, cells were fixed with 10% trichloroacetic acid and stained with 0.4% SRB in a 1% acetic acid solution. After washing and drying, dyes were dissolved in 10 mM Tris buffer (pH 10.0) and absorbance was measured at 515 nm. The percentage of cell proliferation was determined according to the following formula: cell proliferation (%) = 100 × ((A treated − A zero day)/(A control − A zero day)), where A is the average absorbance. The IC50 values were calculated through non-linear regression analysis using TableCurve 2D v5.01 (Systat Software Inc., San Jose, CA, USA).

[1] = tested on: human umbilical vein endothelial cells (HUVEC); test: Anti-angiogenic activity, VEGF-induced tube formation assay; type: cell-based; settings: for IC50: Homo sapiens, HUVEC, VEGF 50 ng/mL, 6 h, read-out: IC50 Anti-Angiogenesis Tube Formation
Method: (§2) Anti-angiogenic activity was evaluated using human umbilical vein endothelial cells (HUVEC) using previously described experimental methods. HUVEC cells were purchased from the American Type Culture Collection (ATCC, Rockville, MD, USA) and cultured in EGM-2 (Lonza, Walkerswille, MD, USA) supplemented with 10% fetal bovine serum (FBS) and antibiotics–antimycotics (PSF; 100 units/mL penicillin G sodium, […], and 250 ng/mL amphotericin B). Briefly, HUVEC cells were mixed with tested compounds in 0.5% FBS EBM-2 media stimulated with or without VEGF (50 ng/mL) on matrigel-coated 96-well plates for 6 h at 37 °C under a humidified atmosphere containing 5% CO2. After the tube formation, cells were photographed using an inverted microscope (Olympus Optical Co. Ltd., Tokyo, Japan), then images were quantified with Angiogenesis Analyzer using Image J software. Tube formation activity was calculated using the following formula: (Total segment # (tested compound) − Total segment # (VEGF−))/(Total segment # (VEGF+) − Total segment # (VEGF−)) × 100. The IC50 value was calculated through non-linear regression analysis using TableCurve 2D v5.01 (Systat Software Inc., San Jose, CA, USA). Cell viability with HUVEC cells were measured independently. First, HUVEC cells were seeded into a 96-well plate and the culture medium was replaced with a serum-free medium when it reached 60% confluency. After overnight starvation, cells were treated with samples and VEGF (50 ng/mL) in 2% FBS EBM-2 medium. Cells were further incubated for 24 h, and MTT assay was used to measure the cell viability. The formazan products were dissolved in dimethyl sulfoxide (DMSO). The absorbance was measured at 570 nm using VersaMax ELISA microplate reader (Molecular Devices, Sunnyvale, CA, USA).

[2] = tested on: human umbilical vein endothelial cells (HUVEC); test: HUVEC cell viability, MTT assay; type: cell-based; settings: VEGF 50 ng/mL, 24 h, read-out: IC50 Anti-Angiogenesis Cell Viability
Method: as §2

A549 = test: Anti-proliferative activity, SRB staining assay, A549; type: cell-based; settings: Homo sapiens, 72 h, read-out: IC50 Anti-Proliferation A549
Method: as §1

[3] = molecular target: Candida albicans-derived isocitrate lyase (ICL) (Candida albicans, UniProt Q9P8Q7); test: biochemical; type: biochemical
Chain of Candida albicans-derived isocitrate lyase (ICL) (Q9P8Q7 whole entry): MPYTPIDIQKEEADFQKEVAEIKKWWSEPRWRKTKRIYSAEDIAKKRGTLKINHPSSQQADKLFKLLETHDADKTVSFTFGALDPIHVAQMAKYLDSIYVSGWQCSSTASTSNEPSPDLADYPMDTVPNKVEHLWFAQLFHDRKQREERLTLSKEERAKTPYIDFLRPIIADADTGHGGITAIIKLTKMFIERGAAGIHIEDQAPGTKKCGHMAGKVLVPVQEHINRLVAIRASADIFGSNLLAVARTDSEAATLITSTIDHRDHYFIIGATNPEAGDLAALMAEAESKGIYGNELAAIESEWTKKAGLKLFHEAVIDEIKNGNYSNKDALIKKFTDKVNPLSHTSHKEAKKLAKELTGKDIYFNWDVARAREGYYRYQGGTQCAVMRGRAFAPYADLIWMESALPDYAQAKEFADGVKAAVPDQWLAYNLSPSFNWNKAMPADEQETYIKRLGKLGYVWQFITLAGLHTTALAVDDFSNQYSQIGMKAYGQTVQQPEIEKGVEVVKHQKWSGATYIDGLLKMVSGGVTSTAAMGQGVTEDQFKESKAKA
Method: A 1 mL aliquot of the reaction mixture contained 20 mM sodium phosphate buffer (pH 7.0), 1.27 mM threo-DL-(+)-isocitrate, 3.75 mM MgCl2, 4.1 mM phenylhydrazine, and 2.5 μg/mL of recombinant ICL. The reaction was immediately initiated following the addition of a substrate with or without a prescribed concentration of the inhibitor dissolved in DMSO (final concentration, 1%). Glyoxylate phenylhydrazone formation was spectrophotometrically assessed at 324 nm after incubation at 37 °C for 30 min. The percent inhibition of ICL enzyme activity for each compound was calculated relative to the inhibitor-free control and the IC50 values were calculated using nonlinear regression analysis (percent inhibition versus concentration). 3-Nitropropionic acid was used as a positive control. Protein concentrations were measured using the Bradford method with the Bio-Rad protein assay kit (Bio-Rad) and bovine serum albumin as the standard.

K562 = test: Anti-proliferative activity, SRB staining assay, K562; type: cell-based; settings: Homo sapiens, 72 h
Method: as §1

HCT116 = test: Anti-proliferative activity, SRB staining assay, HCT116; type: cell-based; settings: Homo sapiens, HCT-116, 72 h, read-out: IC50 Anti-Proliferation HCT 116
Method: as §1

SK-Hep-1 = test: Anti-proliferative activity, SRB staining assay, SK-Hep-1; type: cell-based; settings: Homo sapiens, SK-HEP1, 72 h, read-out: IC50 Anti-Proliferation SK-Hep-1
Method: as §1

MDA-MB-231 = test: Anti-proliferative activity, SRB staining assay, MDA-MB-231; type: cell-based; settings: Homo sapiens, 72 h, read-out: IC50 Anti-Proliferation MDA-MB-231
Method: as §1

[4] = recombinant ICL, 37 °C, 30 min, read-out: IC50 ICL

SMILES	IC50 (SNU638) [µM]	IC50 [1] [µM]	anti-angiogenic activity in the tube formation assay ([1]; non-cytotoxic concentrations range 5–20 μM)	IC50 [2] [µM]	IC50 (A549) [µM]	IC50 [3, 4] [µM]	IC50 (K562) [µM]	IC50 (HCT116) [µM]	IC50 (SK-Hep-1) [µM]	IC50 (MDA-MB-231) [µM]	inhibition of isocitrate lyase (ICL) [3]	IC50 [3] [µM]
NC1=NC(=O)C([C@@H]2[C@@H](CNC(=O)c3cc(Br)c[nH]3)[C@H](CNC(=O)c3cc(Br)c[nH]3)[C@H]2C2NC(N)=NC2=O)N1 (mixture of isomers) [Compound 1, dioxysceptrin]	7.92	7.99	moderate anti-angiogenic activity	> 40	31.3	> 100	12.9	9.93	35.2	32.8		
COc1cc([C@@H]2c3cc4c(cc3[C@@H](O[C@@H]3O[C@@H]5CO[C@@H](C)O[C@H]5[C@H](O)[C@H]3O)[C@H]3COC(=O)[C@H]23)OCO4)cc(OC)c1O [Etoposide, reference compound]	0.63				0.83			0.73	0.74	3.12		
COC(=O)[C@@H]1[C@@H](CNC(=O)c2cc(Br)c[nH]2)[C@H](CNC(=O)c2cc(Br)c[nH]2)[C@H]1C(=O)OC [Compound 4, ageleste B]	37.1	> 40		> 40	30.5	85.3	26.4	38.2	> 50	> 50		
O=C(NC[C@H]1[C@H](CNC(=O)c2cc(Br)c[nH]2)[C@@H](C(=O)O)[C@@H]1C(=O)O)c1cc(Br)c[nH]1 [Compound 2, ageleste C]	36.8	> 40		> 40	49.3	22.1	19.1	44.1	> 50	> 50	moderate inhibition	
O=C(O)CC[N+](=O)[O-] [Compound 3-NP, 3-Nitropropionic acid, reference compound]												11.1
CCN(CC)CCNC(=O)c1c(C)[nH]c(/C=C2\C(=O)Nc3ccc(F)cc32)c1C [Sunitinib, sunitinib, reference compound]		2.41		9.92								
COC(=O)[C@@H]1[C@@H](CNC(=O)c2cc(Br)c[nH]2)[C@H](CNC(=O)c2cc(Br)c[nH]2)[C@H]1C(=O)O [Compound 3, ageleste A]	> 50	> 40		> 40	> 50	> 100	37.6	> 50	> 50	> 50		
COc1cccc2c1C(=O)c1c(O)c3c(c(O)c1C2=O)C[C@@](O)(C(=O)CO)C[C@@H]3O[C@H]1C[C@H](N)[C@H](O)[C@H](C)O1 [Doxorubicin, reference compound]							1.08					
